The results in this text go back to ChEMBL document CHEMBL2094269, “WEHI/Eskitis Trypanosoma b. brucei screening data”.

Data set [1] can be described thus: DNDI: Cytotoxicity against human MRC-5 lung fibroblast cells. To be noted: IC50.
Data set [2] deals with Trypanosoma brucei brucei. The data set is described as follows: microbe, parasite or virus in culture. It counts as functional, organism-based, STIB 795. To be noted: Trypanosoma brucei, STIB 795.
Description: DNDI: Inhibition of Human African Trypanosomiasis (HAT), STIB 795, in vitro

As a reminder, the IC50 is the concentration at which inhibition is half-maximal. Read a high IC50 as weaker potency in that assay. Take `CCOC(=O)c1ccc(Nc2nnc(C(C)(C)C)c(O)n2)cc1`: the IC50 is greater than 41.7 µM in data set [1] and 10.2 µM in data set [2].
The like results for `CC(C)(C)c1ccc(OCCCCCCN2CCNCC2)cc1` were, in that order, greater than 20.8 µM and 0.734 µM.
The like results for `CCCC(=O)Nc1ccc(Cl)c(-c2nc3ncccc3o2)c1` were, in that order, greater than 41.7 µM and 0.851 µM.
For the compound `CC[n+]1c(/C=C/c2c[nH]c3ccccc23)ccc2cc(C)ccc21`, the IC50 is 3.71 µM in data set [1] and 0.294 µM in data set [2].
For the compound `CCN(CC)c1ccc(/C=N/NC(=O)c2cccs2)c(O)c1`, the figures for the IC50 in data set [1] and in data set [2] were greater than 41.7 µM and 12.6 µM, respectively.
The matching figures for `COc1nccnc1N/N=C/c1cc(Cl)cc(Cl)c1O`: greater than 20.8 µM and 5.19 µM.
The like results for `N=C(N)N/N=C(\c1ccc(Cl)cc1)c1ccc(Cl)s1` were, in that order, greater than 4.17 µM and no more than 2.46 µM.
For the compound `N/C(Cc1cccc2ccccc12)=N\OC(=O)N1CCOCC1`, the figures for the IC50 in data set [1] and in data set [2] were greater than 20.8 µM and 0.604 µM, respectively.
As to `Cc1ccc(NCC(=O)N/N=C/c2c(C)cc(O)cc2O)cc1`, the IC50 in data set [1] is greater than 20.8 µM; in data set [2], 5.37 µM.
In the case of `CCn1c(=N)n(CCCOc2ccc(F)cc2)c2ccccc21`, the values for the IC50 in data set [1] and in data set [2] were greater than 20.8 µM and 5.46 µM, respectively.
In the case of `Cc1ccc(-n2nnnc2CNC(=O)c2cccs2)cc1C`, the IC50 is greater than 41.7 µM in data set [1] and 5.85 µM in data set [2].
Regarding `C[n+]1ccc(/C=C/c2c[nH]c3ccc(Br)cc23)cc1`, the IC50 in data set [1] is greater than 4.17 µM; in data set [2], 5.26 µM.
In the case of `Cc1ccccc1/N=N/C(=N\Nc1ccccc1)c1ccccc1`, the IC50 in data set [1] is greater than 41.7 µM; in data set [2] it was 1.64 µM.
`O=C(NCCCN1CCCC1)c1ccc(-c2ccccc2)s1`: the IC50 in data set [1] is greater than 20.8 µM; in data set [2], 5.51 µM.
On to `Cc1cc(C)c2nc(C)cc(Nc3ccc(O)cc3)c2c1`, for which the IC50 was greater than 20.8 µM in data set [1] and 2.95 µM in data set [2].
As for `Cc1cc(C)c2nc(C)cc(Nc3cccc(O)c3)c2c1`, the IC50 in data set [1] is greater than 20.8 µM; in data set [2] it was 4.93 µM.
The like results for `CCCCC1=NN(C(=O)c2ccccn2)C(O)(C(F)(F)F)C1` (configuration not stated) were, in that order, greater than 20.8 µM and 5.4 µM.
The like results for `Oc1c(/N=N/c2ccc3cccc(O)c3n2)ccc2ccccc12` were, in that order, greater than 20.8 µM and 3.87 µM.
For the compound `CC(C)NCC(O)COc1cc2ccsc2c2ccccc12` (configuration not stated), the IC50 in data set [1] was 7.53 µM; in data set [2], 1.54 µM.
On to `O=C(Nc1c2ccccc2nc2ccccc12)c1ccccc1F`, for which the IC50 was greater than 4.17 µM in data set [1] and 5.31 µM in data set [2].
In the case of `CC(C)OCc1cc(CN2CCOCC2)c(O)c2ncccc12`, the 50% inhibitory concentration (IC50) was determined as 0.91 µM in data set [1] and 0.498 µM in data set [2].
`Clc1ccc(OCCCCCN2CCNCC2)c(Cl)c1`: the IC50 was greater than 41.7 µM in data set [1] and 3.57 µM in data set [2].
`Cn1c(-c2cccnc2)nn(C2CC(=O)C3OCC2O3)c1=S` (configuration not stated): the IC50 in data set [1] was greater than 20.8 µM; in data set [2], 2.32 µM.
With `N/C(Cc1cccs1)=N\OC(=O)C12CC3CC(CC(C3)C1)C2`, the values for the 50% inhibitory concentration (IC50) in data set [1] and in data set [2] were greater than 20.8 µM and 0.125 µM, respectively.
For `CC[n+]1c(/C=C/c2ccc(N(C)C)cc2)ccn1-c1ccccc1`, the IC50 was greater than 20.8 µM in data set [1] and 0.536 µM in data set [2].
Take `C=CCc1ccc(OCCCCCN2CCNCC2)c(OC)c1`: the results for the IC50 in data set [1] and in data set [2] were greater than 41.7 µM and 3.19 µM, respectively.
The like results for `C=CCNCCCCOc1ccc(Br)cc1Cl` were, in that order, greater than 41.7 µM and 4.95 µM.
The matching figures for `Cn1ccnc1Sc1cnn(-c2ccccc2)c(=O)c1Cl`: greater than 20.8 µM and 5.27 µM.
Take `N/C(=N\OC(=O)c1ccccc1Br)c1ccccc1`: the IC50 in data set [1] was greater than 20.8 µM; in data set [2], 2.66 µM.
As to `Clc1ccc(CCNCc2c[nH]c3ccccc23)c(Cl)c1`, the IC50 in data set [1] is greater than 20.8 µM; in data set [2] it was 5.33 µM.
The matching figures for `Cc1nn2c(=O)cc(-c3ccc(F)cc3)[nH]c2c1-c1ccccc1`: 2.42 µM and 0.913 µM.
